Test systems include MDA-MB-435; BT-549 breast; HS 578T breast; UO-31 renal; TK-10 renal; T-47D breast.
Assay in all cases: NCI anticancer screen, dose series, 48 h

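The compound was tested at five concentrations on cells cultured in 96-well plates, with a 48-hour exposure period. The concentration for 50% growth inhibition is given as GI50. The concentration for full growth arrest is given as TGI.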

These results are taken from PubChem BioAssay (NCI).

For `O=C(Nc1ccc(F)cc1)Nc1ccc(Br)c(C(F)(F)F)c1`, the GI50 with MDA-MB-435 is 2.4 µM; in the experiment on BT-549 breast, 2.05 µM; in the experiment on HS 578T breast, 2.95 µM; with UO-31 renal, 2.35 µM; in the experiment on TK-10 renal, 2.33 µM; with T-47D breast it was 1.62 µM. Moreover, the TGI is 8.59 µM in the experiment with MDA-MB-435; 7.4 µM with BT-549 breast; 9.31 µM in the experiment with HS 578T breast; 10.6 µM in the experiment with UO-31 renal; 7.43 µM in the experiment with TK-10 renal; 7.4 µM in the experiment on T-47D breast.

Take `O=C(CI)Nc1ccc(O)c2ccccc12`: the GI50 is 1.9 µM in the experiment on MDA-MB-435; 2.28 µM with BT-549 breast; 2.45 µM in the experiment on HS 578T breast; 0.647 µM in the experiment on UO-31 renal; 1.72 µM with TK-10 renal; 1.7 µM with T-47D breast. The TGI is 4.34 µM with MDA-MB-435; 6.25 µM with BT-549 breast; 8.49 µM with HS 578T breast; 2.01 µM in the experiment with UO-31 renal; 3.75 µM with TK-10 renal; 4.27 µM in the experiment with T-47D breast.

For `C[n+]1c2ccccc2nc2ccccc21`, the GI50 was 0.516 µM in the experiment with MDA-MB-435; 2.26 µM with BT-549 breast; 0.953 µM in the experiment on HS 578T breast; 2.39 µM with UO-31 renal; 2.71 µM in the experiment with TK-10 renal; 1.07 µM in the experiment on T-47D breast. Also, the TGI with MDA-MB-435 turned out to be 1.75 µM; in the experiment on BT-549 breast, 10.8 µM; in the experiment on HS 578T breast, 3.72 µM; in the experiment on UO-31 renal, 7.6 µM; with TK-10 renal, 13 µM; in the experiment on T-47D breast, 2.72 µM.

On to `COc1ccc(/C=C2\SC(=Nc3ccccc3)NC2=O)cc1`, for which the GI50 in the experiment on MDA-MB-435 was 2.14 µM; in the experiment on BT-549 breast it was 45.7 µM; in the experiment on HS 578T breast, 4.32 µM; with UO-31 renal it was 6.97 µM; with TK-10 renal it was 41.4 µM; in the experiment with T-47D breast, 6.46 µM. Moreover, the TGI with MDA-MB-435 is 5.34 µM; with BT-549 breast, more than 100 µM; with HS 578T breast it was 40.7 µM; in the experiment with UO-31 renal, more than 100 µM; in the experiment with TK-10 renal, more than 100 µM; in the experiment on T-47D breast it was more than 100 µM.

Consider `COc1ccc(/C(C#N)=C/c2cc(OC)c(OC)c(OC)c2)cc1`, for which the GI50 with MDA-MB-435 was 2.19 µM; in the experiment on BT-549 breast, 21.1 µM; with HS 578T breast, 38.7 µM; in the experiment with UO-31 renal it was 15.3 µM; with TK-10 renal it was 37.4 µM; in the experiment with T-47D breast it was 17 µM. Also, the TGI in the experiment on MDA-MB-435 was 12.5 µM; with BT-549 breast it was 70 µM; in the experiment on HS 578T breast, more than 100 µM; in the experiment with UO-31 renal, 68.8 µM; in the experiment with TK-10 renal, more than 100 µM; in the experiment on T-47D breast it was 67.6 µM.

As to `CC(C)C(=O)c1c(C(F)(F)F)n([O-])c2cc(F)c(F)cc2[n+]1=O`, the GI50 with MDA-MB-435 was 0.724 µM; with BT-549 breast it was 0.587 µM; with HS 578T breast it was 0.598 µM; in the experiment on UO-31 renal, 0.568 µM; with TK-10 renal, 0.976 µM; with T-47D breast it was 1.26 µM. In addition, the TGI came to 2.15 µM in the experiment with MDA-MB-435; 1.9 µM in the experiment with BT-549 breast; 2.64 µM with HS 578T breast; 1.75 µM in the experiment on UO-31 renal; 2.67 µM with TK-10 renal; 3.96 µM with T-47D breast.

With `CC(=O)NC(CSC1=C2NC(=O)\C=C/C=C/C=C\C(C)C(O)CC(=O)/C(C)=C\CC(O)/C=C/C(C)C(O)C(C)C=C(C)C(=O)c3c(O)c(C)cc(c3C1=O)C2=O)C(=O)O` (centres undefined), the TGI in the experiment on MDA-MB-435, with BT-549 breast, with HS 578T breast, in the experiment with UO-31 renal, in the experiment with TK-10 renal and in the experiment with T-47D breast was more than 100 µM each time.

For the compound `NC(=O)c1cccc(OCC(O)CO)c1` (centres undefined), the TGI in the experiment on BT-549 breast, with HS 578T breast, in the experiment with UO-31 renal, in the experiment with TK-10 renal and in the experiment on T-47D breast was more than 100 µM each time.

As to `Nc1ccc(COC(O)CN2CCCCC2)cc1[N+](=O)[O-]` (centres undefined), the TGI in the experiment on MDA-MB-435, in the experiment with BT-549 breast, in the experiment on UO-31 renal, with TK-10 renal and in the experiment with T-47D breast was more than 100 µM throughout.

Take `CC1(C)OC(=O)C(C#N)=C1C[n+]1ccccc1`: the TGI in the experiment on MDA-MB-435, with HS 578T breast, in the experiment with UO-31 renal, in the experiment with TK-10 renal and with T-47D breast was more than 10 µM each time.

As to `C=C1SC(=Nc2ccccc2Cl)N(C(=O)c2sc3ccccc3c2Cl)C12CCCCC2`, the GI50 in the experiment with MDA-MB-435 was 29.8 µM; in the experiment on BT-549 breast, 70.4 µM; with HS 578T breast, 4.84 µM; in the experiment with UO-31 renal it was 2.33 µM; in the experiment with TK-10 renal it was 15.2 µM; with T-47D breast it was 3.35 µM. In addition, the TGI in the experiment on MDA-MB-435, with BT-549 breast, with HS 578T breast, in the experiment with UO-31 renal, in the experiment on TK-10 renal and in the experiment with T-47D breast was more than 100 µM each time.

Consider `CC([C@H]1CC=C2C3CCC4=C[C@@H](N(C)C)CC[C@]4(C)C3CC[C@@]21C)N(C)C` (some centres undefined), for which the GI50 in the experiment on MDA-MB-435 was 2 µM; with BT-549 breast, 3.54 µM; in the experiment with HS 578T breast, 3.24 µM; with UO-31 renal, 1.95 µM; with TK-10 renal, 5.42 µM; with T-47D breast it was 1.17 µM. In addition, the TGI in the experiment on MDA-MB-435 is 4.94 µM; in the experiment with BT-549 breast, 15.4 µM; in the experiment with HS 578T breast, 13.6 µM; with UO-31 renal, 5.54 µM; in the experiment with TK-10 renal it was 20 µM; with T-47D breast, 7.77 µM.

Regarding `C[C@H]1CNC(=O)c2cnn3ccc(nc23)N[C@H](C)c2cc(F)ccc2O1`, the GI50 with MDA-MB-435 was 8.84 µM; with BT-549 breast, 1.1 µM; in the experiment with HS 578T breast it was 0.325 µM; with UO-31 renal, 1.21 µM; in the experiment on TK-10 renal, 0.749 µM; with T-47D breast it was 1.6 µM. For the same compound, the TGI in the experiment with MDA-MB-435 was more than 91.2 µM; with BT-549 breast, 2.52 µM; in the experiment on HS 578T breast, 2.76 µM; in the experiment with UO-31 renal it was 3.56 µM; in the experiment with TK-10 renal, 3.12 µM; with T-47D breast, more than 93.5 µM.
